Laboratory results reported in patent publication US12570655B2, “Cysteine covalent modifiers of AKT1 and uses thereof” (Terremoto Biosciences, Inc., priority 2023, dated 2026).
Like-named read-outs stand apart in the source and are kept apart here.

How the values were obtained:
Type in all cases: cell-based
AKT2 = target: T1, AKT2 (Homo sapiens, UniProt P31751); assay: Live cell AKT2 target engagement by NanoBRET competitive probe displacement; conditions: HEK293 cells transfected with kinase-NanoLuciferase fusion, 2 h at 37° C.
T1 construct: expressed in transfected cells; host or cells: HEK293
Summary of the method: (§1)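 IC50 reflects displacement of a fluorescent ATP-competitive tracer, dosed near its EC50, from kinase–NanoLuciferase fusions in live HEK293 cells. Cells were incubated with compound and tracer for 2 h at 37 °C, then E600/E460 BRET was read.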

[1] = system: LAPC4 prostate cancer cells; assay: Antiproliferative effects in LAPC4 cells (CellTiter Glo); conditions: LAPC4 cells (AKT1 E17K allele), read-out: LAPC4 proliferation IC50
Summary of the method: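 Seed 1,000 cells/well in IMDM/12% FBS/1% P/S; add compound dilutions (DMSO); incubate 72 h; read intracellular ATP with CellTiter Glo; fit luminescence to log(inhibitor)-response Hill curve for IC50.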

AKT1 E17K = target: T2, AKT1 E17K (Homo sapiens, UniProt P31749, E17K); assay: Live cell AKT1 E17K target engagement by NanoBRET competitive probe displacement; conditions: HEK293 cells transfected with kinase-NanoLuciferase fusion, 2 h at 37° C.
T2 construct: expressed in transfected cells; host or cells: HEK293
Summary of the method: as §1

AKT1 WT = target: T3, AKT1 WT (Homo sapiens, UniProt P31749); assay: Live cell AKT1 WT target engagement by NanoBRET competitive probe displacement; conditions: HEK293 cells transfected with kinase-NanoLuciferase fusion, 2 h at 37° C.
T3 construct: expressed in transfected cells; host or cells: HEK293
Summary of the method: as §1

T2 sequence (P31749 whole entry E17K, the tested form may be a part): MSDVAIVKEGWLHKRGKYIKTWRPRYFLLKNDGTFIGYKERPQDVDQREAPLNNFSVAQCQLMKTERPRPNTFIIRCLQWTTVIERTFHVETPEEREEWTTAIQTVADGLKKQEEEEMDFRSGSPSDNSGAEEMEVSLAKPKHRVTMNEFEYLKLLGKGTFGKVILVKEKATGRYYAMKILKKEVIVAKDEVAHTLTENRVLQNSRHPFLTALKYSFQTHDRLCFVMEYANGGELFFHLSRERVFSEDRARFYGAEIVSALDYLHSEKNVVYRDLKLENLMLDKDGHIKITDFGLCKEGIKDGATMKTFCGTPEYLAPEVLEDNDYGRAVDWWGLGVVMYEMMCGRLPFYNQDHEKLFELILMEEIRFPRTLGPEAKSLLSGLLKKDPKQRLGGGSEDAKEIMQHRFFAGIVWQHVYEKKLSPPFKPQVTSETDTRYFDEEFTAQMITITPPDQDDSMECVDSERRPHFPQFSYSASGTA
T1 sequence (P31751 whole entry, the tested form may be a part): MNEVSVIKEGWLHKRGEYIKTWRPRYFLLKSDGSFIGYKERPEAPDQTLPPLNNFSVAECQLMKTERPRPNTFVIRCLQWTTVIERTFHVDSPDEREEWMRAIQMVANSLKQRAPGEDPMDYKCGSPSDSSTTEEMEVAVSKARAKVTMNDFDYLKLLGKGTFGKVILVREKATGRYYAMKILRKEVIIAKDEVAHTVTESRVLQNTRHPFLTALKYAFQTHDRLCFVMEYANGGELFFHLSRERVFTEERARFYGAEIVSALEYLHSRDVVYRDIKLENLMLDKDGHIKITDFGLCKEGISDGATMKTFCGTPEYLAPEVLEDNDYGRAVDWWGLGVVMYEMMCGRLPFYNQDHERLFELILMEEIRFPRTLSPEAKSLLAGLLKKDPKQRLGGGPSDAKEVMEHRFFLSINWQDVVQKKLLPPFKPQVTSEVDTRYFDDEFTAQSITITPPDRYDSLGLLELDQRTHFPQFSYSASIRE
T3 sequence (P31749 whole entry, the tested form may be a part): as the sequence (P31749 whole entry E17K, the tested form may be a part) above, with K17E counted along it

IC50 (AKT2)	IC50 ([1]; 72 h)	IC50 (AKT1 E17K)	IC50 (AKT1 WT)	IC50 ([1]; Homo sapiens, LAPC4, 72 h)	SMILES
31.7 nM	17.1 nM	8.39 nM	9.35 nM	–	C=CC(=O)N1CCC(N[C@H]2CCc3cc(-n4c(-c5cccnc5N)nc5ccc(-n6cccn6)nc54)ccc32)C[C@H]1C (single isomer, unassigned) [Example 62, 1-((2R,4*)-4-(((S)-5-(2-(2-aminopyridin-3-yl)-5-(1H-pyrazol-1-yl)-3H-imidazo[4,5-b]pyridin-3-yl)-2,3-dihydro-1H-inden-1-yl)amino)-2-methylpiperidin-1-yl)prop-2-en-1-one]
199 nM	–	20.1 nM	984 nM	371 nM	C=CC(=O)N1CCC(NC2CCc3cc(-n4c(-c5cccnc5N)nc5ccc(C6CC6(F)F)nc54)ccc32)CC1 (single isomer, unassigned) [Example 244, 1-(4-(((*)-5-(2-(2-aminopyridin-3-yl)-5-((*)-2,2-difluorocyclopropyl)-3H-imidazo[4,5-b]pyridin-3-yl)-2,3-dihydro-1H-inden-1-yl)amino)piperidin-1-yl)prop-2-en-1-one]
334 nM	–	43.2 nM	1450 nM	1030 nM	C=CC(=O)N1CCC(N[C@H]2CCc3cc(-n4c(-c5cccs5)nc5ccc(-n6cccn6)nc54)ccc32)CC1 [Example 239, 1-(4-{[(1S)-5-[5-(pyrazol-1-yl)-2-(thiophen-2-yl)imidazo[4,5-b]pyridin-3-yl]-2,3-dihydro-1H-inden-1-yl]amino}piperidin-1-yl)prop-2-en-1-one]
> 10000 nM	> 10000 nM	> 1000 nM	> 1000 nM	–	C=CC(=O)N1CCC(NC2c3ccc(-n4c(-c5cccnc5N)nc5ccc(-n6cccn6)nc54)cc3CC2O)CC1 (single isomer, unassigned) [Example 151, 1-(4-(((1*,2*)-5-(2-(2-aminopyridin-3-yl)-5-(1H-pyrazol-1-yl)-3H-imidazo[4,5-b]pyridin-3-yl)-2-hydroxy-2,3-dihydro-1H-inden-1-yl)amino)piperidin-1-yl)prop-2-en-1-one]
980 nM	–	146 nM	50.9 nM	406 nM	C=CC(=O)N1CCC(N[C@H]2CCc3cc(-n4c(-c5cccnc5N)nc5ccc(-n6ccc(F)n6)nc54)ccc32)CC1 [Example 49, (S)-1-(4-((5-(2-(2-aminopyridin-3-yl)-5-(3-fluoro-1H-pyrazol-1-yl)-3H-imidazo[4,5-b]pyridin-3-yl)-2,3-dihydro-1H-inden-1-yl)amino)piperidin-1-yl)prop-2-en-1-one]
271 nM	–	46.2 nM	19.4 nM	310 nM	C=C(F)C(=O)Nc1ccccc1C(=O)N[C@H]1CCc2cc(-n3c(-c4cccnc4N)nc4ccc(-n5cccn5)nc43)ccc21 [Example 5, (S)-N-(5-(2-(2-aminopyridin-3-yl)-5-(1H-pyrazol-1-yl)-3H-imidazo[4,5-b]pyridin-3-yl)-2,3-dihydro-1H-inden-1-yl)-2-(2-fluoroacrylamido)benzamide]
97.7 nM	–	21.9 nM	756 nM	334 nM	C=CC(=O)N1CCC(N[C@H]2CCc3cc(-n4c(-c5cccnc5N)nc5ccc(C6CC6)nc54)ccc32)C(C)C1 (single isomer, unassigned) [Example 229, 1-((3*,4*)-4-(((S)-5-(2-(2-aminopyridin-3-yl)-5-cyclopropyl-3H-imidazo[4,5-b]pyridin-3-yl)-2,3-dihydro-1H-inden-1-yl)amino)-3-methylpiperidin-1-yl)prop-2-en-1-one]
717 nM	–	68.4 nM	43 nM	296 nM	NC(=O)/C=C/c1ncccc1C(=O)N[C@H]1CCc2cc(-n3c(-c4cccnc4N)nc4ccc(-n5cccn5)nc43)ccc21 [Example 45, N-[(1S)-5-[2-(2-aminopyridin-3-yl)-5-(pyrazol-1-yl)imidazo[4,5-b]pyridin-3-yl]-2,3-dihydro-1H-inden-1-yl]-2-[(1E)-2-carbamoyleth-1-en-1-yl]pyridine-3-carboxamide]
257 nM	–	74 nM	21.9 nM	116 nM	C=CC(=O)N(C)CCCN[C@H]1CCc2cc(-n3c(-c4cccnc4N)nc4ccc(-n5cccn5)nc43)ccc21 [Example 166, (S)-N-(3-((5-(2-(2-aminopyridin-3-yl)-5-(1H-pyrazol-1-yl)-3H-imidazo[4,5-b]pyridin-3-yl)-2,3-dihydro-1H-inden-1-yl)amino)propyl)-N-methylacrylamide]
358 nM	–	174 nM	43.3 nM	248 nM	C=CC(=O)N1CCC(N[C@H]2CCc3cc(-n4c(-c5cccnc5N)nc5ccc(-c6cc7n(n6)CCOC7)nc54)ccc32)CC1 [Example 121, (S)-1-(4-((5-(2-(2-aminopyridin-3-yl)-5-(6,7-dihydro-4H-pyrazolo[5,1-c][1,4]oxazin-2-yl)-3H-imidazo[4,5-b]pyridin-3-yl)-2,3-dihydro-1H-inden-1-yl)amino)piperidin-1-yl)prop-2-en-1-one]
51.5 nM	68 nM	29.6 nM	12.1 nM	–	C=CC(=O)N1CCC(N[C@H]2CCc3cc(-n4c(-c5cccnc5N)nc5ccc(-n6cccn6)nc54)ccc32)C[C@@H]1C (single isomer, unassigned) [Example 66, 1-((2S,4*)-4-(((S)-5-(2-(2-aminopyridin-3-yl)-5-(1H-pyrazol-1-yl)-3H-imidazo[4,5-b]pyridin-3-yl)-2,3-dihydro-1H-inden-1-yl)amino)-2-methylpiperidin-1-yl)prop-2-en-1-one]
248 nM	124 nM	47.5 nM	24.1 nM	–	C=CC(=O)N1CCC(N[C@H]2CCc3cc(-n4c(-c5cccnc5N)nc5ccc(-n6cccn6)nc54)ccc32)C[C@H]1C (single isomer, unassigned) [Example 63, 1-((2R,4*)-4-(((S)-5-(2-(2-aminopyridin-3-yl)-5-(1H-pyrazol-1-yl)-3H-imidazo[4,5-b]pyridin-3-yl)-2,3-dihydro-1H-inden-1-yl)amino)-2-methylpiperidin-1-yl)prop-2-en-1-one]
104 nM	144 nM	23.9 nM	6.71 nM	–	C=CC(=O)N1CCC(N[C@H]2CCc3cc(-n4c(-c5cccnc5N)nc5ccc(-n6cccn6)nc54)ccc32)C(F)(F)C1 (single isomer, unassigned) [Example 56, 1-((*)-4-(((S)-5-(2-(2-aminopyridin-3-yl)-5-(1H-pyrazol-1-yl)-3H-imidazo[4,5-b]pyridin-3-yl)-2,3-dihydro-1H-inden-1-yl)amino)-3,3-difluoropiperidin-1-yl)prop-2-en-1-one]
38.5 nM	–	10.4 nM	127 nM	90 nM	C=CC(=O)N1CCC(N[C@H]2CCc3cc(-n4c(-c5cccnc5N)nc5ccc(-n6ccc(Cl)n6)nc54)ccc32)CC1 [Example 252, 1-(4-{[(1S)-5-[2-(2-aminopyridin-3-yl)-5-(3-chloropyrazol-1-yl)imidazo[4,5-b]pyridin-3-yl]-2,3-dihydro-1H-inden-1-yl]amino}piperidin-1-yl)prop-2-en-1-one]
50.9 nM	25.3 nM	8.87 nM	7.33 nM	–	C#CC1CC(N[C@H]2CCc3cc(-n4c(-c5cccnc5N)nc5ccc(-n6cccn6)nc54)ccc32)CCN1C(=O)C=C (single isomer, unassigned) [Example 113, 1-((2*,4*)-4-(((S)-5-(2-(2-aminopyridin-3-yl)-5-(1H-pyrazol-1-yl)-3H-imidazo[4,5-b]pyridin-3-yl)-2,3-dihydro-1H-inden-1-yl)amino)-2-ethynylpiperidin-1-yl)prop-2-en-1-one]
27.9 nM	134 nM	11.5 nM	157 nM	–	C=CC(=O)N1CCC(N[C@@H]2c3ccc(-n4c(-c5cccnc5N)nc5ccc(-n6ccc(F)n6)nc54)cc3CC2F)C[C@@H]1C (single isomer, unassigned) [Example 273, 1-((2S,4*)-4-(((1R,2*)-5-(2-(2-aminopyridin-3-yl)-5-(3-fluoro-1H-pyrazol-1-yl)-3H-imidazo[4,5-b]pyridin-3-yl)-2-fluoro-2,3-dihydro-1H-inden-1-yl)amino)-2-methylpiperidin-1-yl)prop-2-en-1-one]
101 nM	147 nM	35.4 nM	8.09 nM	–	C=CC(=O)N1CCC(N[C@H]2CCc3cc(-n4c(-c5cccnc5N)nc5ccc(-n6cccn6)nc54)ccc32)C(C)C1 (single isomer, unassigned) [Example 102, 1-((3*,4*)-4-(((S)-5-(2-(2-aminopyridin-3-yl)-5-(1H-pyrazol-1-yl)-3H-imidazo[4,5-b]pyridin-3-yl)-2,3-dihydro-1H-inden-1-yl)amino)-3-methylpiperidin-1-yl)prop-2-en-1-one]
20.2 nM	–	9.64 nM	7.5 nM	18.3 nM	C=CC(=O)Nc1ccc(F)cc1C(=O)N[C@H]1CCc2cc(-n3c(-c4cccnc4N)nc4ccc(-n5cccn5)nc43)ccc21 [Example 20, N-[(1S)-5-[2-(2-aminopyridin-3-yl)-5-(pyrazol-1-yl)imidazo[4,5-b]pyridin-3-yl]-2,3-dihydro-1H-inden-1-yl]-5-fluoro-2-(prop-2-enamido)benzamide]
